Legend:
[1] = Lyophilization of PLGA-mPEG NPs in the presence of lyoprotectants, reconstitution with water, DLS; assay type: physicochemical; set-up: key to Aggr. (visible large aggregates): Y = aggregates observed; N = no aggregates observed; details: for Size in nm: PLGA-mPEG NPs lyophilized and reconstituted; for prevention of NP aggregation during lyophilization (in words): PLGA-mPEG5k NPs, lyoprotectant/NP mass ratio up to 10
Experimental: Lyophilization of PLGA-mPEG NPs in the presence of lyoprotectants. An acetone solution of PLGA-mPEG (5 mg/mL, 100 μL) was added dropwise into a vigorously stirred water solution (4 mL) containing the NCs to make the PLGA-mPEG NPs. A lyoprotectant was added to the vigorously stirred NC solution at the selected lyoprotectant/NC mass ratio (varying from 2 to 20). The solution was then lyophilized, reconstituted with 2 mL water and stirred for 5 minutes. The sizes of the resulting NCs were analyzed by DLS.

LLC tumors = test: Tumor prevention/inhibition study, LLC cells co-injected subcutaneously with test article; assay type: in vivo, C57B1/6 female mice; details: at 25 days, 5 mg/kg in 1:1 Cremophor EL/ethanol
Experimental: To access the ability of paclitaxel-loaded nanoparticles to inhibit establishment of lung cancer in an in vivo model mimicking microscopic disease that can remain when the surgical margin is close to the tumor, Ptxl-PLA NCs were evaluated in a rapidly growing subcutaneous tumor model. Specifically, the ability of Ptxl-PLA NCs to prevent establishment of rapidly growing LLC tumors in C57B1/6 female mice compared to Ptxl alone (in a clinical formulation) and controls without any drugs was assessed. In these experiments, 1,000,000 LLC tumor cells plus Ptxl-LA25/PLGA-mPEG nanoparticles containing a total dose of 5 or 50 mg/kg incorporated Ptxl were injected subcutaneously into the flank of a mouse. Other groups received the injection of 1,000,000 LLC cells alone or LLC cells mixed with Ptxl solubilized with 1:1 Cremophor EL/ethanol as used clinically at 5 mg/kg dosage.

Row | SMILES | Size in nm ([1]; lyoprotectant/NP mass ratio 2) [nm] | Size in nm ([1]; lyoprotectant/NP mass ratio 10) [nm] | Aggr. (visible large aggregates) ([1]; lyoprotectant/NP mass ratio 2) | Aggr. (visible large aggregates) ([1]; lyoprotectant/NP mass ratio 10) | Distr. No. (number of particle size distributions) ([1]; lyoprotectant/NP mass ratio 10) | PDI ([1]; lyoprotectant/NP mass ratio 10) | SL/SO (ratio of lyophilized NP size to pre-lyophilized NP size) ([1]; lyoprotectant/NP mass ratio 10) | prevention of NP aggregation during lyophilization (in words) [1] | Distr. No. (number of particle size distributions) ([1]; lyoprotectant/NP mass ratio 2) | PDI ([1]; lyoprotectant/NP mass ratio 2) | SL/SO (ratio of lyophilized NP size to pre-lyophilized NP size) ([1]; lyoprotectant/NP mass ratio 2) | tumors at injection site (LLC tumors)
1 | OC[C@H]1O[C@H](O[C@H]2[C@H](O)[C@@H](O)C(O)O[C@@H]2CO)[C@H](O)[C@@H](O)[C@@H]1O (mixture of isomers) [Maltose] | >1000 | 220.4 | Y | Y | 2 | 0.288 | 3.54 | – | – | – | – | –
2 | O=C[C@H](O)[C@@H](O)[C@@H](O)[C@H](O)CO [Galactose] | – | >1000 | – | Y | – | – | – | could not prevent NP aggregation at all | – | – | – | –
3 | NCC(=O)O [Glycine] | – | >1000 | – | Y | – | – | – | unable to prevent NP aggregation | – | – | – | –
4 | CCCCCCCCCCCCOS(=O)(=O)[O-].[Na+] [SDS, sodium dodecyl sulfate] | – | >1000 | – | Y | – | – | – | unable to prevent NP aggregation | – | – | – | –
5 | OC[C@@H](O)[C@@H](O)[C@H](O)[C@@H](O)CO [Sorbitol] | >1000 | 764.8 | Y | Y | 2 | 0.299 | 12.28 | – | – | – | – | –
6 | OC[C@H]1O[C@@](CO)(O[C@H]2O[C@H](CO)[C@@H](O)[C@H](O)[C@H]2O)[C@@H](O)[C@@H]1O [Sucrose] | 245.2 | 217.5 | Y | Y | 2 | 0.220 | 3.49 | – | 2 | 0.227 | 3.93 | –
7 | CC(=O)O[C@H]1C(=O)[C@@]2(C)[C@H]([C@H](OC(=O)c3ccccc3)[C@]3(O)C[C@H](OC(=O)[C@H](O)[C@@H](NC(=O)c4ccccc4)c4ccccc4)C(C)=C1C3(C)C)[C@]1(OC(C)=O)CO[C@@H]1C[C@@H]2O [paclitaxel] | – | – | – | – | – | – | – | – | – | – | – | large tumors were noted

Reference: US9295651B2, “Nanoconjugates and nanoconjugate formulations” (priority 2009, dated 2016)
